This is an account of results in patent US10099995B2 (Cole Research and Design, LLC, priority 2015, dated 2018).

One series can be described thus: physchem. How it is done: Two 4 mg samples of each compound were weighed.
The first sample was used to determine solubility. The sample was mixed with 1 mL of pH 7.4 phosphate buffered saline (PBS) buffer solution to produce a 4 mg/mL solution. The solution was vortexed and filtered to remove undissolved particles. The filtered solution was then diluted in pH 7.4 buffer in triplicate and stored in a refrigerator to reduce hydrolysis. The solutions were allowed to sit at room temperature for 5 minutes and then were analyzed by HPLC.
The second sample was used to prepare a calibration curve in ethanol. Calibrators were made based on expected solubility. After visually inspecting solubility in the buffer, the calibration curve was determined in order to include points above and below the expected concentration. The calibrators were stored in a refrigerator until ready for analysis by HPLC.

Series [1] concerns subscapular incision wound. The experiment in a line: in vivo application of compositions to subscapular incisions in a rat model (Example 13). More on the design: species or system Sprague-Dawley rats. The text has this:
12 Sprague-Dawley rats were placed randomly into 6 different groups, Study Groups 1-6, resulting in 2 animals per study group. Animals were anesthetized and the dorsal subscapular areas were shaved of hair with electric trimmers. Demarcations were made in a gently widening parallel approximately 1 cm subscapular and 2.2 cm in length. The left subscapular incision served as a control and the right subscapular incision served as the treatment site. The subscapular areas were incised with a #15 blade though the skin and subcutaneous panniculus carnosus muscle. The composition mixture corresponding to each group was then instilled into the right subscapular wound and the incision closed with 5-0 nylon interrupted fashion. Additional mixture was applied to the surface of the treatment site incision. Three biopsies were taken of normal skin at the time of incision and prior to any mixture instillation. Each site was then monitored and photographed daily. Wound gross morphology was noted daily. Sutures were removed and biopsies were taken at day 8 of the study (postoperative day #7) and sent to pathology for histology review. Histology was reviewed independently by two dermatopathologists.
A siRNA (MCP-1 inhibitor)

For series [2] the following is noted: pH 7.4.
The next series concerns wound. To be noted: applied before wound formation or up to 24 hours after; cited from earlier work.

In brackets after ≈: the same amount, converted by molar mass.

The Solubility is the concentration that dissolves in the medium under given conditions. A lower Solubility goes with little dissolved substance. For the compound `O=C(O)CCCC(=O)Oc1ccc(C=Cc2cc(OC(=O)CCCC(=O)O)cc(OC(=O)CCCC(=O)O)c2)cc1` [Resveratrol trihemiglutarate, resveratrol trihemiglutarate], in “physchem” (pH 7.4), the Solubility stood at 2060 µg/mL (≈ 3610 µM). Further, the “differences in histology between control and treatment site” value in series [1] (100 μM and 400 μM (either dosage), Groups 2 and 3) is recorded as “no differences”. Besides, the “difference in treatment, alone, as compared to natural resveratrol alone” value in series [1] (Groups 2 and 3) is reported as “no appreciable difference”. Also, the “evidence of trichogranuloma in histology specimens” value in series [1] (histology) is reported as “mild”. Also, the hydrolysis result in series [2] was “slightly hydrolyzed”.
In turn, `O=C(O)CCC(=O)Oc1ccc(C=Cc2cc(OC(=O)CCC(=O)O)cc(OC(=O)CCC(=O)O)c2)cc1` [Resveratrol trihemisuccinate, resveratrol trihemisuccinate] had a Solubility in the series “physchem” (pH 7.4) of 291 µg/mL (≈ 551 µM). The hydrolysis result in series [2] was “quick hydrolysis”.
In “physchem” (pH 7.4, aqueous buffer, thermodynamic from solid), `Oc1ccc(/C=C/c2cc(O)cc(O)c2)cc1` [Resveratrol, trans-3,4′,5-trihydroxystilbene] showed a Solubility of 4.8 µg/mL (≈ 21 µM). Also, in the series on wound, the scar result is on record as “attenuated scar” and the time to re-epithelialization result is “up to 24 hours”.
